{
  "source": "patent US10945991B2",
  "about": "“Use and pharmaceutical composition for liver fibrosis prevention and/or treatment” (Cojet Biotech Inc., priority 2018, dated 2021)",
  "origin": "cited, not measured here",
  "test_system": "RAW 264.7 cell line",
  "data": [
    {"molecule": "Cc1cc(O)c2c(c1O)OCO2", "note": "[MBDD, 5-methyl-benzol[1,3]dioxole-4,7-diol]", "values": [
      {"measurement": "NO production induced by lipopolysaccharide", "setting": "RAW 264.7 cell line, effect may result from cytotoxicity", "value": "reduce the NO production"},
      {"measurement": "cytotoxicity", "setting": "RAW 264.7 cells", "value": "strong cytotoxicity"}
    ]}
  ]
}
